We go through eleven molecules from ChEMBL document CHEMBL1128650, “Non-peptide glycoprotein IIb/IIIa inhibitors. 6. Design and synthesis of rigid, centrally constrained non-peptide fibrinogen receptor antagonists” (Bioorg Med Chem Lett, 1995).

Test [1] deals with Integrin alpha-IIb/beta-3 (Homo sapiens, UniProt P05106+P08514). Nature of the test: Inhibition of fibrinogen binding to glycoprotein alpha IIb beta-3 integrin of activated platelets.
In the next test the test system is Endothelial cell. Nature of the test: Inhibition of human umbilical vein endothelial cell adhesion to fibrinogen, vitronectin and fibronectin coated surfaces;NI means no inhibition at 300 uM. The test is classed as functional, cell-based.

Chain of Integrin alpha-IIb/beta-3 (P05106 27-788 limits assumed): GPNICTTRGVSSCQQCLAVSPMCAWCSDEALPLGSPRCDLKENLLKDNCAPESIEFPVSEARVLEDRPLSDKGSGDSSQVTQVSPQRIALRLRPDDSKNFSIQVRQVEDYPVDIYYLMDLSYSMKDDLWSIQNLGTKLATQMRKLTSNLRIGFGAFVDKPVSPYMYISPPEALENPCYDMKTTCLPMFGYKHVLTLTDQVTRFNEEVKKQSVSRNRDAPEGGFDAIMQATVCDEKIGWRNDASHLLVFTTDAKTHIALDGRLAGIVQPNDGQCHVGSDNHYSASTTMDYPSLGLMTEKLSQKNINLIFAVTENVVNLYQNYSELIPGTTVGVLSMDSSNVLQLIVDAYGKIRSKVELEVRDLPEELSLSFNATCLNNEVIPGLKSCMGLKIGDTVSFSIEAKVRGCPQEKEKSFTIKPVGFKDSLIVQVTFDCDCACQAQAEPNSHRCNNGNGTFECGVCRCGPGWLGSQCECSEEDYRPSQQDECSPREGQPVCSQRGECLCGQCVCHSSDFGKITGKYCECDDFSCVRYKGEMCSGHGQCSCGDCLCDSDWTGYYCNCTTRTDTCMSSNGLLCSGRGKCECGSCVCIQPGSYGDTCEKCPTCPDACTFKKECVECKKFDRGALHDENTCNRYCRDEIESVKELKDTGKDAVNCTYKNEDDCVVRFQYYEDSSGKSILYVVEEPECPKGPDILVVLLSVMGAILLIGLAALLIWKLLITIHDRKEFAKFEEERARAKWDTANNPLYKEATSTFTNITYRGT
Chain of Integrin alpha-IIb/beta-3 (P08514 32-887 limits assumed): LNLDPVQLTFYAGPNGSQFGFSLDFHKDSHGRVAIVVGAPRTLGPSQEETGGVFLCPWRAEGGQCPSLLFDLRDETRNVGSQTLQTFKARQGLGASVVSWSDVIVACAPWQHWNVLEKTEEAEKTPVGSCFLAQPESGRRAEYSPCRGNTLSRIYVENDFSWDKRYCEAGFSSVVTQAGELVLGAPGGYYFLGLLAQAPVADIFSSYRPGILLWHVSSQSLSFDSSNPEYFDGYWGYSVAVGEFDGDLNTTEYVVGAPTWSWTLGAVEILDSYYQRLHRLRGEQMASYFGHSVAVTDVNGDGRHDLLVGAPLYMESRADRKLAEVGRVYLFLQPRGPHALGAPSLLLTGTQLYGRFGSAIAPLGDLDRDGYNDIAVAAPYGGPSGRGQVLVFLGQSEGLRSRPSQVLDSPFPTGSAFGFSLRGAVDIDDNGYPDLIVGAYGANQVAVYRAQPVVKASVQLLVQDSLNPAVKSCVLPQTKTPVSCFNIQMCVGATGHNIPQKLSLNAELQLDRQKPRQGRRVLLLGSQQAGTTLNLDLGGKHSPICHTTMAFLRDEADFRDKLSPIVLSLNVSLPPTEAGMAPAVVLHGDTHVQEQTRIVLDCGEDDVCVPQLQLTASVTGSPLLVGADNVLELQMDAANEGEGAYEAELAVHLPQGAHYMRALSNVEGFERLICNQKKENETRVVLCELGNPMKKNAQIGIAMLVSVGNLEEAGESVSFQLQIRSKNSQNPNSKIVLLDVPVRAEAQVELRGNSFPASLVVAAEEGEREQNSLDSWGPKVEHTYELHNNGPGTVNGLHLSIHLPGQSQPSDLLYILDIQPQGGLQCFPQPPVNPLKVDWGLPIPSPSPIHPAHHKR
Chain of Integrin alpha-IIb/beta-3 (P08514 891-1039 limits assumed): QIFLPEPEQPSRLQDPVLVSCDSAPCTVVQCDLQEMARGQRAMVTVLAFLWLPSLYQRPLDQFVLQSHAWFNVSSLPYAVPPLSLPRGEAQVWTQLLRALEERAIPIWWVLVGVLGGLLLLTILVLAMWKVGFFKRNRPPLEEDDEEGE

As to `O=C(O)CNC(=O)c1cc2n(n1)CCN(CCCC1CCNCC1)C2=O`, in test [1], the IC50 (commonly the midpoint of a concentration-inhibition curve) came to 14 µM.
Take `O=C(O)CCNC(=O)c1cc2n(c1)CCN(CCC1CCNCC1)C2=O`: the inhibition entry in the test with Endothelial cell is “No inhibition”. The molecule further gave a half-inhibitory concentration (IC50) in test [1] of 0.079 µM.
`O=C(O)CCNC(=O)c1cn2c(c1-c1ccccc1)C(=O)N(CCC1CCNCC1)CCC2` displayed an IC50 in test [1] of over 300 µM.
For `O=C(O)CCNC(=O)c1cc2n(n1)CCN(CCCC1CCNCC1)C2=O`, the half-inhibitory concentration (IC50) in test [1] worked out at 1.3 µM.
For the molecule `O=C(O)CCCNC(=O)c1cc2n(n1)CCN(CC1CCNCC1)C2=O`, the IC50 in test [1] came to 15 µM.
Molecule `O=C(O)CCNC(=O)c1cc2n(n1)CCN(CC1CCNCC1)C2=O` registered an IC50 in test [1] of 45 µM.
`O=C(O)CCNC(=O)c1cc2n(c1)CCCN(CCC1CCNCC1)C2=O` had an IC50 in test [1] of 0.17 µM.
Same read-out and setting: to `O=C(O)CCNC(=O)c1cc2n(n1)CCN(CCC1CCNCC1)C2=O` belongs 0.25 µM.
Still for that read-out and setting: to `Cc1c(C(=O)NCCC(=O)O)cn2c1C(=O)N(CCC1CCNCC1)CC2` belongs 0.17 µM; to `Cc1c(C(=O)NCCC(=O)O)cn2c1C(=O)N(CCC1CCNCC1)CCC2`, 0.51 µM.
Still for that read-out and setting: in the case of `O=C(O)CCN1CCn2nc(C(=O)NCCC3CCNCC3)cc2C1=O` it was 31 µM.
